Assay results published in ChEMBL document CHEMBL3507680, “University of Dundee, Gates Library screen for HepG2 cell viability”.

Experiment: Human HepG2 cell viability assay in 384 well format
Format: toxicity, cell-based
Set-up: dose 125 nL, time 70.5 hour; cytotoxicity at 70.5 h: concentration not given beside the values
Details: HepG2 cells, read-out: Inhibition

SMILES	cytotoxicity at 70.5 h
O=C(NCc1cccnc1)[C@@H]1CC[C@@H]2[C@@H](CCN2c2ncc(F)cn2)O1	-3.65%
COc1ccccc1OCCCN1C(=O)CCNC1=O	32%
Cc1cc(=O)n2ncnc2n1CC(O)c1ccccc1F (stereo not given)	-10.7%
Cc1nc(C)n(CC2CCCN(Cc3cccc4c3OCCO4)C2)n1 (stereo not given)	12%
Cc1csc(N2CCCN(C(=O)C(C)n3cncn3)CC2)n1 (stereo not given)	1.24%
COc1ccccc1-n1nc(CC(C)C)nc1CSc1nnc(N)s1	-15.9%
NC(=O)c1cc(C2CCCN(C(=O)CCc3cscn3)C2)n[nH]1 (stereo not given)	-11.7%
Cc1cccc(NC(=O)c2sccc2C)n1	36.7%
COc1ccccc1CN(Cc1cccnc1)CC1CCCO1 (stereo not given)	-1.02%
Cc1cnn(C2CN(c3nc(-c4ccncc4)nc4c3CCC4)C2)c1	-6.05%
Fc1ccc(C2CCCN2Cc2nnnn2C2CC2)cc1 (stereo not given)	28.2%
O=C(c1cc(Cl)c2c(c1)OCO2)N1CCN(c2nccs2)CC1	1.39%
O=C(c1ccc2c(c1)CCO2)N1CCN(c2ncccn2)CC1	2.69%
CCOc1ccc(CC(=O)N2C[C@H](C3CC3)[C@@H](N)C2)cc1	37.4%
CC(C)CNc1nc(C(=O)/N=c2\[nH]nc(C(C)(C)C)s2)cs1	4.48%
CCC(=O)N1CCC2(CC1)CC(CC(=O)NC1CC1)c1ccccc1O2 (stereo not given)	5.58%
COc1c(C(=O)N2CCC(COCc3ccccc3)C2)c(C)nn1C (stereo not given)	-0.0423%
CC(C)C(O)CCNC(=O)Nc1cc(F)ccc1-n1cccn1 (stereo not given)	14.9%
CN1CCOC(CNCCc2ccccn2)C1 (stereo not given)	-1.1%
Cc1ncsc1-c1cc(C(=O)NCCO)ccn1	21.2%
c1nc(N2CCOC(Cn3cncn3)C2)c2sccc2n1 (stereo not given)	29%
COCc1ccc(C(=O)N2CCOCC2c2ccc(C)o2)cc1 (stereo not given)	-0.476%
Cc1nc(CN2CCC3(CCCO3)CC2)c2ccccn12	14.9%

SMILES	cytotoxicity at 70.5 h
CCOCCOC(C)C(=O)Nc1ccc2ccn(CC(=O)NC)c2c1 (stereo not given)	-13.2%
O=C(COc1coc(CN2CCCCC2)cc1=O)c1ccccc1	-18.6%
CC(C)CNC(=O)CC1OCCc2ccsc21 (stereo not given)	-7.58%
CC(C)(C)C(Cn1cccn1)NC(=O)c1ccco1 (stereo not given)	-2.47%
Cc1cnn(C2CCN(Cc3ccccc3)C2)c1N (stereo not given)	16%
CN1CCOC(CNCc2coc(-c3cccc(Cl)c3)n2)C1 (stereo not given)	-0.236%
Cc1cnn(CC2CCCCN2C(=O)Cc2ccc(C#N)cc2)c1 (stereo not given)	-7.76%
COc1ncccc1CNC(=O)c1csc(Br)c1	-8.18%
CCN(CC)C(CNC(=O)c1ccc(S(=O)(=O)NC)cc1)c1ccco1 (stereo not given)	0.103%
O=C(NCCn1nc(-n2cncn2)ccc1=O)c1ccsc1	-4.55%
Cc1ccc(CC(=O)N2CCc3nnc(N(C)C)cc3C2)cn1	-3.16%
O=C(O)CCc1nc2nccc(C(F)(F)F)n2n1	0.723%
CO[C@@H]1CCN(S(=O)(=O)c2cccs2)[C@H]1Cc1ccccc1	-0.149%
Cc1cc2nc(SCC(=O)N3CCOCC3)n(CC(C)C)c(=O)c2[nH]1	-7.46%
CC(C)Oc1ncccc1CNC(=O)c1cc[nH]n1	-7.86%
OCC1(CCOc2ccccc2)CCCN(c2ccc(Cl)cn2)C1 (stereo not given)	-2.17%
CC/N=c1\nc(NCC)nc2n1C(O)(Nc1cccc(Cl)c1Cl)CS2 (stereo not given)	-1.29%
CNC(=O)[C@@H]1C[C@@H](N)CN1Cc1ccc2cccc(OC)c2n1	-2.31%
O=C(c1ccc(Cl)cc1-n1cnnn1)N1CCC2(CC1)OCCO2	-0.151%
CCOc1nc2cnccc2n(CC(=O)Nc2ccccc2OC)c1=O	-7.54%
CC(=O)NCC1CCN(c2ccnc3ccc(Br)cc23)CC1	-2.63%
Nc1cc(CCCNC(=O)NC2CC2)nn1-c1ccccc1	-2.83%
O=C(Nc1ccccc1C(=O)NCCCN1CCOCC1)c1ccco1	-6.18%

SMILES	cytotoxicity at 70.5 h
CCCN1CCc2nc(SCc3ccc(F)cc3)[nH]c(=O)c2C1	-3.74%
CCOCCOC(C)C(=O)Nc1ccnn1-c1ccccc1C (stereo not given)	-4.2%
Cc1nccn1-c1cc(CNC(=O)N2CCSCC2)ccn1	-3.48%
CC(C)NC(=O)CC1(Cn2cnnn2)CCCCC1	-22.1%
OC(CN1CCC(c2ccn[nH]2)CC1)c1cccc(F)c1 (stereo not given)	-28.7%
O=C(c1cccnc1SC/C=C/c1ccccc1)N1CC[C@H](O)C1	2.11%
Cc1ccsc1CCNC(=O)C1(Oc2cccnc2C)CCNCC1	-10.2%
COc1ccc(NC(=O)N2CCOCC(CN(C)C)C2)c(C)c1 (stereo not given)	17.5%
Cc1noc(NCc2ccc(F)cc2)n1	-1.48%
O=C(NCc1ccc2c(c1)OCO2)c1ccc(N2CCCCC2)nn1	12.8%
Cc1nc(CN2CCc3c(nc(C4CC4)n3C)C2)nc2ccccc12	-5.35%
CS(=O)(=O)NC[C@]12COC[C@H]1CN(C(=O)C1CCSCC1)C2	-5.88%
CCn1cc(S(=O)(=O)N2CCCC3(CC=CNC3=O)C2)c(C)n1 (stereo not given)	-1.52%
CC(C)Nc1ncc(-c2ccncc2)c([C@@H]2CCCO2)n1	-8.69%
COCC(O)CN1CCC(=O)N(Cc2ccccc2)Cc2ccccc21 (stereo not given)	-5.42%
Cc1ncc(CN(C)Cn2nc(-c3ccccc3)oc2=O)s1	-13.1%
Cc1cc(C(=O)N2CCCC2)ccc1NCc1nc(CC(C)C)no1	-9.73%
CN(C)C(CNS(=O)(=O)c1ccc(F)cc1F)c1cccn1C (stereo not given)	-13.1%
Cc1ccccc1Oc1ncccc1CNC1CCC1	1.33%
COCCS(=O)(=O)NC(C)c1ccc(-n2nc(C)cc2C)cc1 (stereo not given)	3.86%
Cc1nn(S(=O)(=O)c2ccc(Cl)cc2)c(C)c1C	38.4%
Cc1cc(NCc2cc3n(n2)CCCN(C(=O)C2CCC2)C3)nc(N)n1	-1.07%
CCN(CC)CC1CN(Cc2ccc(C)s2)Cc2nccn2C1 (stereo not given)	-7.85%

SMILES	cytotoxicity at 70.5 h
CCS(=O)(=O)N1CCCn2cnc(COc3cccnc3)c2C1	-2.04%
CC(NC(=O)NCC1(c2ccc(F)cc2)CCC1)c1nncn1C (stereo not given)	-16.8%
NC(=O)CN1CCCN(C(=O)Cc2ccc(F)c(Br)c2)CC1	-8.24%
CCc1n[nH]c(C2CN(Cc3nccn3CC)CCO2)n1 (stereo not given)	22.2%
CCc1noc(CNCCn2cc(C)cn2)n1	-3.69%
CCCOCC(=O)N1CCc2c(cccc2S(=O)(=O)N2CCOCC2)C1	19.4%
CNC(=O)C1CN(c2ccc(F)cc2)CCN1 (stereo not given)	-1.89%
O=C(NC[C@H]1OC[C@@H](NCc2ccccc2F)[C@@H]1O)c1ccc(F)cc1	-3.67%
Cn1cc(C(O)CNC(=O)c2ccc(F)cc2Cl)cn1 (stereo not given)	-13%
CN(Cc1noc2c1CCCC2)C(=O)C1CCOc2ccccc2C1 (stereo not given)	-3.46%
CC(C)C(C(=O)N1CCN(Cc2ccccn2)CC1)n1cncn1 (stereo not given)	-10.2%
c1cnc(N2CCCC3(CCN(c4ncccn4)C3)C2)nc1 (stereo not given)	26.5%
O=C1CC[C@H]2[C@H](CCN2C(=O)C2CCCO2)N1Cc1cccnc1 (stereo not given in full)	-6.99%
CCc1noc(C2CCCCN2C(=O)c2ccc(C)o2)n1 (stereo not given)	14%
COc1ncc(CN2CCC3(CCCN(CC4CCCCC4)C3)C2)cn1 (stereo not given)	26.8%
Cc1noc([C@@]23CCO[C@@H]2CCN(C(=O)C2CCOCC2)C3)n1	4.56%
CCOC(=O)N1CCN(C(=O)c2ccc3ccn(C)c3c2)CC1	-8.79%
Cc1cc(CNCc2c(C)n(CC(C)C)c3ccccc23)[nH]n1	-5.55%
Cc1noc([C@@]23CCO[C@@H]2CCN(Cc2scnc2C)C3)n1	-13.1%
CO[C@@H]1CN(c2ccccc2)S(=O)(=O)[C@@]12CCN(S(C)(=O)=O)C2	15.4%
CC(C)(C)c1nccc(N2CCCCC2CNS(C)(=O)=O)n1 (stereo not given)	-4.1%
CCC(=O)Nc1ccc(C(C)NC(=O)COC)cc1 (stereo not given)	-9.08%
O=C(O)[C@@H]1CN(C(=O)CCN2CCCCC2)C[C@H]1c1ccccc1	-5.31%

SMILES	cytotoxicity at 70.5 h
CCC(c1nc(CC(C)C)nn1-c1ccccn1)n1cccn1 (stereo not given)	-12.3%
CS(=O)(=O)c1ccc(-c2cc(C3CC3)c(C#N)c(N)n2)cc1	0.0408%
Cc1cc(C)n(CC2CCN(CC(O)Cn3cccn3)CC2)n1 (stereo not given)	-1.67%
CCn1cc(CN2CCN(CC(O)c3cc(C)ccc3C)CC2)c(C)n1 (stereo not given)	-1.03%
CCN1CCCC(NC(=O)CCn2c(C(F)F)cc3cccnc32)C1 (stereo not given)	-4.62%
CN(C)c1nccc(NC(=O)c2ccncc2)n1	-7.12%
Cc1cc(NC(=O)CCN2CCCC2Cn2cccn2)no1 (stereo not given)	-6.26%
CS(=O)(=O)N1CCC(c2nnc(Cn3ccnc3)n2C2CC2)CC1	-3.52%
Cc1nc2cc(C3CCN(C(=O)c4ccccn4)CC3)nn2c(O)c1C	44.6%
O=C(NCc1ccc2c(c1)CCCO2)c1ccccc1C1CCNC1 (stereo not given)	-20.6%
COCCOC(=O)N1CCn2nc(CN(C)Cc3nccs3)cc2C1	13.8%
CCC1=N[C@@]2(CC[C@@H]3CN(Cc4ccccc4F)C[C@@H]32)C(=O)N1	-6.13%
NC1(c2nc(-c3ccccc3)cc(=O)[nH]2)CCCCC1	-10.8%
COC(=O)C1CN(Cc2nc(C(C)(C)C)cs2)C[C@@H](C)O1 (stereo not given in full)	-7.31%
CCOc1ccc(Cl)cc1NC(=O)N1CCC(n2cncn2)CC1	-7.8%
COc1nn(C)cc1C(=O)N1CCC(c2ccccc2)C1 (stereo not given)	-1.63%
Cc1nccn1CCN(C)C(=O)c1cn(CC2CCCCC2)nn1	-25.4%
O=C(O)C1CN(c2cncc(Cc3ccccc3)n2)C1	-3.73%
O=C(c1cccs1)N1CC[C@@H]2CN(C3CCOCC3)CCO[C@@H]2C1	-6.31%
Cc1ccc(-c2cc(C(=O)NCCCc3csc(N)n3)[nH]n2)s1	-3.12%
CCN(Cc1cccc(Cl)c1)Cc1ncc(C(C)(C)C)o1	-1.17%
C[C@@H]1CN(c2ccc(Cl)cn2)CC[C@@]1(O)C1CCOCC1	-1.93%
COc1ccccc1OC1CCN(C(=O)c2cccc(O)c2C)CC1	-4.78%
